ChEMBL document CHEMBL4340549, “Design, synthesis and biological evaluation of isochroman-4-one hybrids bearing piperazine moiety as antihypertensive agent candidates” (Bioorg Med Chem, 2019)
Values belong to the compound of their own block, whether it stands above or below them.

Assays:
Thoracic aorta [1] = experiment: Vasodilatory activity in Sprague-Dawley rat thoracic aorta assessed as inhibition of noradrenaline-induced contractions at 10 uM relative to untreated control; type: functional
Thoracic aorta [2] = experiment: Vasodilatory activity in Sprague-Dawley rat thoracic aorta assessed as inhibition of noradrenaline-induced contractions at 100 uM relative to untreated control; type: functional
[3] = target: T1, Alpha-1D adrenergic receptor (Rattus norvegicus, UniProt P23944); experiment: Antagonist activity at alpha-1D adrenergic receptor in SPF rat vas thoracic aorta assessed as inhibition of noradrenaline-induced contractions; conditions: read-out: pA2 (converted)
T1 sequence (P23944 whole entry): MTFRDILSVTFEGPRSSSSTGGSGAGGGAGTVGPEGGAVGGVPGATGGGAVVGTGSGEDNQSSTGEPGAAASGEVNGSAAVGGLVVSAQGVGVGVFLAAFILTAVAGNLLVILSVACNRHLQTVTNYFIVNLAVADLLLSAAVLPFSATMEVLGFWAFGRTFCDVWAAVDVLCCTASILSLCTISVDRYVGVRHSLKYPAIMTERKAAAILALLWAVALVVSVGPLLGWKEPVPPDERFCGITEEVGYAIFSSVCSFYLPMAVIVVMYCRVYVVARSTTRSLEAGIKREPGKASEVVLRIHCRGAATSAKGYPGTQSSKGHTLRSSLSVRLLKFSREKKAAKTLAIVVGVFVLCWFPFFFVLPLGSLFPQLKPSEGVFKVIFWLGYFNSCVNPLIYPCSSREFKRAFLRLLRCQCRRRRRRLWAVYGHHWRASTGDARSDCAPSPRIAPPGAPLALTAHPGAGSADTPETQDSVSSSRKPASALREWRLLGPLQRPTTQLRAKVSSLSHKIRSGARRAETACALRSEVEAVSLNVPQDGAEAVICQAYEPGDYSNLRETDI

Rattus norvegicus [4] = experiment: Antihypertensive activity in spontaneously hypertensive rat assessed as mean arterial pressure at 80 mg/kg, po measured after 2 hrs by tail-cuff method (reference value: 163 +/- 8.1 mmHg); type: functional
Rattus norvegicus [5] = experiment: Antihypertensive activity in spontaneously hypertensive rat assessed as systolic arterial pressure at 80 mg/kg, po measured after 4 hrs by tail-cuff method (reference value: 178.66 +/- 17.18 mmHg); type: functional
Rattus norvegicus [6] = experiment: Antihypertensive activity in spontaneously hypertensive rat assessed as mean arterial pressure at 80 mg/kg, po measured after 4 hrs by tail-cuff method (reference value: 150.30 +/- 9.26 mmHg); type: functional
Rattus norvegicus [7] = experiment: Effect on heart rate in spontaneously hypertensive rat assessed as heart rate level at 80 mg/kg, po measured after 6 hrs by tail-cuff method (reference value: 411.12 +/- 19.1 bpm); type: ADME, organism-based; conditions: in vivo
Rattus norvegicus [8] = experiment: Antihypertensive activity in spontaneously hypertensive rat assessed as systolic arterial pressure at 80 mg/kg, po measured after 1 hr by tail-cuff method (reference value: 185.35 +/- 10.30 mmHg); type: functional
Rattus norvegicus [9] = experiment: Effect on heart rate in spontaneously hypertensive rat assessed as heart rate level at 80 mg/kg, po measured after 2 hrs by tail-cuff method (reference value: 413.2 +/- 15.2 bpm); type: ADME, organism-based; conditions: in vivo
Rattus norvegicus [10] = experiment: Antihypertensive activity in spontaneously hypertensive rat assessed as mean arterial pressure at 80 mg/kg, po measured after 8 hrs by tail-cuff method (reference value: 153.55 +/- 11.43 mmHg); type: functional
Rattus norvegicus [11] = experiment: Antihypertensive activity in spontaneously hypertensive rat assessed as systolic arterial pressure at 80 mg/kg, po measured after 8 hrs by tail-cuff method (reference value: 179.42 +/- 13.70 mmHg); type: functional
Rattus norvegicus [12] = experiment: Antihypertensive activity in spontaneously hypertensive rat assessed as diastolic arterial pressure at 80 mg/kg, po measured after 0 hrs by tail-cuff method (reference value: 149.50 +/- 5.4 mmHg); type: functional
Rattus norvegicus [13] = experiment: Antihypertensive activity in spontaneously hypertensive rat assessed as systolic arterial pressure at 80 mg/kg, po measured after 2 hrs by tail-cuff method (reference value: 189.20 +/- 12.31 mmHg); type: functional
Rattus norvegicus [14] = experiment: Effect on heart rate in spontaneously hypertensive rat assessed as heart rate level at 80 mg/kg, po measured after 4 hrs by tail-cuff method (reference value: 410.80 +/- 17.4 bpm); type: ADME, organism-based; conditions: in vivo
Rattus norvegicus [15] = experiment: Antihypertensive activity in spontaneously hypertensive rat assessed as diastolic arterial pressure at 80 mg/kg, po measured after 8 hrs by tail-cuff method (reference value: 140.61 +/- 10.3 mmHg); type: functional
Rattus norvegicus [16] = experiment: Antihypertensive activity in spontaneously hypertensive rat assessed as diastolic arterial pressure at 80 mg/kg, po measured after 2 hrs by tail-cuff method (reference value: 149.90 +/- 6 mmHg); type: functional
Rattus norvegicus [17] = experiment: Antihypertensive activity in spontaneously hypertensive rat assessed as diastolic arterial pressure at 80 mg/kg, po measured after 4 hrs by tail-cuff method (reference value: 136.12 +/- 5.3 mmHg); type: functional
Rattus norvegicus [18] = experiment: Antihypertensive activity in spontaneously hypertensive rat assessed as diastolic arterial pressure at 80 mg/kg, po measured after 6 hrs by tail-cuff method (reference value: 137.54 +/- 9.2 mmHg); type: functional
Rattus norvegicus [19] = experiment: Antihypertensive activity in spontaneously hypertensive rat assessed as reduction in mean arterial pressure at 80 mg/kg, po measured after 2 hrs by tail-cuff method; type: functional; set-up: scale not given: the % may be the effect or the level left
Rattus norvegicus [20] = experiment: Antihypertensive activity in spontaneously hypertensive rat assessed as mean arterial pressure at 80 mg/kg, po measured after 6 hrs by tail-cuff method (reference value: 151.48 +/- 12.24 mmHg); type: functional
Rattus norvegicus [21] = experiment: Effect on heart rate in spontaneously hypertensive rat assessed as heart rate level at 80 mg/kg, po measured after 8 hrs by tail-cuff method (reference value: 412.77 +/- 11.3 bpm); type: ADME, organism-based; conditions: in vivo
Rattus norvegicus [22] = experiment: Effect on heart rate in spontaneously hypertensive rat assessed as heart rate level at 80 mg/kg, po measured after 0 hrs by tail-cuff method (reference value: 413.17 +/- 10.5 bpm); type: ADME, organism-based; conditions: in vivo
Rattus norvegicus [23] = experiment: Antihypertensive activity in spontaneously hypertensive rat assessed as mean arterial pressure at 80 mg/kg, po measured after 1 hr by tail-cuff method (reference value: 160 +/- 9.97 mmHg); type: functional
Rattus norvegicus [24] = experiment: Antihypertensive activity in spontaneously hypertensive rat assessed as diastolic arterial pressure at 80 mg/kg, po measured after 1 hr by tail-cuff method (reference value: 147.33 +/- 9.8 mmHg); type: functional
Rattus norvegicus [25] = experiment: Antihypertensive activity in spontaneously hypertensive rat assessed as mean arterial pressure at 80 mg/kg, po measured after 0 hrs by tail-cuff method (reference value: 161.70 +/- 5.12 mmHg); type: functional
Rattus norvegicus [26] = experiment: Antihypertensive activity in spontaneously hypertensive rat assessed as systolic arterial pressure at 80 mg/kg, po measured after 0 hrs by tail-cuff method (reference value: 186.10 +/- 4.55 mmHg); type: functional
Rattus norvegicus [27] = experiment: Antihypertensive activity in spontaneously hypertensive rat assessed as systolic arterial pressure at 80 mg/kg, po measured after 6 hrs by tail-cuff method (reference value: 179.36 +/- 18.33 mmHg); type: functional
Rattus norvegicus [28] = experiment: Effect on heart rate in spontaneously hypertensive rat assessed as heart rate level at 80 mg/kg, po measured after 1 hr by tail-cuff method (reference value: 415.25 +/- 14.7 bpm); type: ADME, organism-based; conditions: in vivo

SMILES: CCOc1ccccc1N1CCN(CC(O)COc2c(OC)ccc3c2COC(C)C3=O)CC1 (stereo not drawn)
- inhibition at 10 µM (Thoracic aorta [1]): 23.1%
- inhibition at 100 µM (Thoracic aorta [2]): 36.1%

SMILES: CCOc1ccccc1N1CCN(CC(O)COc2cc3c(cc2OC)C(=O)C(C)OC3)CC1 (stereo not drawn)
- inhibition at 10 µM (Thoracic aorta [1]): 11.6%
- inhibition at 100 µM (Thoracic aorta [2]): 23.3%

- Kb [3]: 2200 nM
SMILES: COc1cc2c(cc1OCC(O)CN1CCN(c3ccccc3OC)CC1)COC(C)C2=O (stereo not drawn)
- inhibition at 10 µM (Thoracic aorta [1]): 41.7%
- inhibition at 100 µM (Thoracic aorta [2]): 50.4%

SMILES: COc1cc2c(cc1OCC(O)CN1CCN(C(=O)c3ccco3)CC1)COC(C)C2=O (stereo not drawn)
- inhibition at 10 µM (Thoracic aorta [1]): 17.8%
- inhibition at 100 µM (Thoracic aorta [2]): 22.8%

SMILES: COc1cc2c(cc1OCC(O)CN1CCN(c3ccccc3Cl)CC1)C(=O)C(C)OC2 (stereo not drawn)
- inhibition at 10 µM (Thoracic aorta [1]): 30.2%
- inhibition at 100 µM (Thoracic aorta [2]): 42.4%

- Kb [3]: 485 nM
SMILES: CCOc1ccccc1N1CCN(CC(O)COc2cc3c(cc2OC)COC(C)C3=O)CC1 (stereo not drawn)
- inhibition at 10 µM (Thoracic aorta [1]): 25.4%
- inhibition at 100 µM (Thoracic aorta [2]): 55.3%

SMILES: COc1ccc2c(c1OCC(O)CN1CCN(C(=O)c3ccco3)CC1)COC(C)C2=O (stereo not drawn)
- inhibition at 10 µM (Thoracic aorta [1]): 20.8%
- inhibition at 100 µM (Thoracic aorta [2]): 31.9%

- Kb [3]: 340 nM
SMILES: COc1ccc2c(c1OCC(O)CN1CCN(C(=O)C3CCCO3)CC1)COC(C)C2=O (stereo not drawn)
- inhibition at 10 µM (Thoracic aorta [1]): 31.4%
- inhibition at 100 µM (Thoracic aorta [2]): 45.1%

- Kb [3]: 1550 nM
SMILES: COc1cc2c(cc1OCC(O)CN1CCN(C(=O)c3ccco3)CC1)C(=O)C(C)OC2 (stereo not drawn)
- inhibition at 10 µM (Thoracic aorta [1]): 33.4%
- inhibition at 100 µM (Thoracic aorta [2]): 44.9%

SMILES: COc1ccccc1N1CCN(CC(O)COc2c(OC)ccc3c2COC(C)C3=O)CC1 (stereo not drawn)
- inhibition at 10 µM (Thoracic aorta [1]): 13.6%
- inhibition at 100 µM (Thoracic aorta [2]): 24.4%

- Kb [3]: 143 nM
SMILES: COc1ccccc1N1CCN(CC(O)COc2cccc3ccccc23)CC1 (stereo not drawn) [NAFTOPIDIL]
- Activity (Rattus norvegicus [4]): 135.94 mmHg
- Activity (Rattus norvegicus [5]): 153.65 mmHg
- Activity (Rattus norvegicus [6]): 140.76 mmHg
- Activity (Rattus norvegicus [7]): 411.19 bpm
- Activity (Rattus norvegicus [8]): 161.36 mmHg
- Activity (Rattus norvegicus [9]): 406.12 bpm
- Activity (Rattus norvegicus [10]): 152.21 mmHg
- Activity (Rattus norvegicus [11]): 170.5 mmHg
- Activity (Rattus norvegicus [12]): 152.14 mmHg
- Activity (Rattus norvegicus [13]): 148.13 mmHg
- Activity (Rattus norvegicus [14]): 409.22 bpm
- Activity (Rattus norvegicus [15]): 143.06 mmHg
- Activity (Rattus norvegicus [16]): 129.85 mmHg
- Activity (Rattus norvegicus [17]): 134.31 mmHg
- Activity (Rattus norvegicus [18]): 139.57 mmHg
- inhibition at 10 µM (Thoracic aorta [1]): 47.5%
- inhibition at 100 µM (Thoracic aorta [2]): 65.2%
- Activity (Rattus norvegicus [19]): 16.1%
- Activity (Rattus norvegicus [20]): 145.79 mmHg
- Activity (Rattus norvegicus [21]): 417.25 bpm
- Activity (Rattus norvegicus [22]): 415.15 bpm
- Activity (Rattus norvegicus [23]): 147.25 mmHg
- Activity (Rattus norvegicus [24]): 140.19 mmHg
- Activity (Rattus norvegicus [25]): 162.07 mmHg
- Activity (Rattus norvegicus [26]): 181.92 mmHg
- Activity (Rattus norvegicus [27]): 158.22 mmHg
- Activity (Rattus norvegicus [28]): 412.14 bpm

SMILES: COc1cc2c(cc1OCC(O)CN1CCN(c3ccccc3OC)CC1)C(=O)C(C)OC2 (stereo not drawn)
- inhibition at 10 µM (Thoracic aorta [1]): 23.1%
- inhibition at 100 µM (Thoracic aorta [2]): 44.6%

- Kb [3]: 296 nM
SMILES: COc1ccc2c(c1OCC(O)CN1CCN(c3ccccc3)CC1)COC(C)C2=O (stereo not drawn)
- inhibition at 10 µM (Thoracic aorta [1]): 37.8%
- inhibition at 100 µM (Thoracic aorta [2]): 59.7%

SMILES: COc1cc2c(cc1OCC(O)CN1CCN(c3ccccc3Cl)CC1)COC(C)C2=O (stereo not drawn)
- inhibition at 10 µM (Thoracic aorta [1]): 27%
- inhibition at 100 µM (Thoracic aorta [2]): 32.4%

SMILES: COc1ccc2c(c1OCC(O)CN1CCN(c3ccccc3Cl)CC1)COC(C)C2=O (stereo not drawn)
- inhibition at 10 µM (Thoracic aorta [1]): 18.2%
- inhibition at 100 µM (Thoracic aorta [2]): 29.1%

SMILES: COc1cc2c(cc1OCC(O)CN1CCN(c3ccccc3)CC1)C(=O)C(C)OC2 (stereo not drawn)
- inhibition at 10 µM (Thoracic aorta [1]): 28.6%
- inhibition at 100 µM (Thoracic aorta [2]): 46.4%

SMILES: COc1cc2c(cc1OCC(O)CN1CCN(C(=O)C3CCCO3)CC1)COC(C)C2=O (stereo not drawn)
- inhibition at 10 µM (Thoracic aorta [1]): 33.9%
- inhibition at 100 µM (Thoracic aorta [2]): 40.1%

- Kb [3]: 621 nM
SMILES: COc1cc2c(cc1OCC(O)CN1CCN(c3ccccc3)CC1)COC(C)C2=O (stereo not drawn)
- inhibition at 10 µM (Thoracic aorta [1]): 39.2%
- inhibition at 100 µM (Thoracic aorta [2]): 48.1%
